Assay results as given in patent US4311698A, “Aminoacid derivatives of cephalosporin compounds” (priority 1980, dated 1982).
Values after ≈ are worked out from the molar mass of the structure shown.

Assays:
Format in all cases: cell-based
E. Coli. Brig = experiment: In vitro minimal inhibitory concentration, E. Coli. Brig; details: for MIC: Escherichia coli
Prot Vulg. = experiment: In vitro minimal inhibitory concentration, Prot Vulg.
Serr. Mar. IMM 16 = experiment: In vitro minimal inhibitory concentration, Serr. Mar. IMM 16
E. Coli. Vogel = experiment: In vitro minimal inhibitory concentration, E. Coli. Vogel; details: for MIC: Escherichia coli
Strep. fec. MGH 2 = experiment: In vitro minimal inhibitory concentration, Strep. fec. MGH 2
Staph S 18713 = experiment: In vitro minimal inhibitory concentration, Staph S 18713
Pseudomonas UI 18 = experiment: In vitro minimal inhibitory concentration, Pseudomonas UI 18; details: for MIC: UI18
Pseudomonas BRK 12-4-4 = experiment: In vitro minimal inhibitory concentration, Pseudomonas BRK 12-4-4; details: for MIC: BRK1244
Staph UC76 = experiment: In vitro minimal inhibitory concentration, Staph UC76
Entero Cloac. IM 11 = experiment: In vitro minimal inhibitory concentration, Entero Cloac. IM 11
Pseudomonas #28 = experiment: In vitro minimal inhibitory concentration, Pseudomonas #28; details: Pseudomonas #28, in vitro; for MIC: read-out: Minimal Inhibitory Concentration
Klebs. Pneum. MGH 2 = experiment: In vitro minimal inhibitory concentration, Klebs. Pneum. MGH 2

CC(=O)OCC1=C(C(=O)O)N2C(=O)C(NC(=O)[C@H](NC(=O)c3ccc(-c4ccc(NC(=O)[C@@H]5CC(OC(C)=O)CN5C(C)=O)cc4)[nH]c3=O)c3ccccc3)C2SC1 (stereo partly drawn) [Example 32, N-[6-[4-[N-Acetyl-4-(acetyloxy)-L-prolylamino]phenyl]-1,2-dihydro-2-oxoniotinyl]-7-[D-2-amino-2-phenylacetamido]-3-acetoxymethyl-3-cephem-4-carboxylic acid] showed an MIC (E. Coli. Brig) of 25 µg/mL (≈ 30.7 µM), an MIC (Prot Vulg.) of 25 µg/mL (≈ 30.7 µM) and an MIC (Serr. Mar. IMM 16) of over 50 µg/mL. It also gave an MIC (E. Coli. Vogel) of 6.3 µg/mL (≈ 7.73 µM), an MIC (Strep. fec. MGH 2) of 25 µg/mL (≈ 30.7 µM) and an MIC (Staph S 18713) of 6.3 µg/mL (≈ 7.73 µM). It also gave an MIC (Pseudomonas UI 18) of 12.5 µg/mL (≈ 15.3 µM), an MIC (Pseudomonas BRK 12-4-4) of 25 µg/mL (≈ 30.7 µM) and an MIC (Staph UC76) of 1.6 µg/mL (≈ 1.96 µM). It also gave an MIC (Entero Cloac. IM 11) of 25 µg/mL (≈ 30.7 µM), an MIC (Pseudomonas #28) of 12.5 µg/mL (≈ 15.3 µM) and an MIC (Klebs. Pneum. MGH 2) of 12.5 µg/mL (≈ 15.3 µM).

For O=C(O)Cn1nnnc1SCC1=C(C(=O)O)N2C(=O)C(NC(=O)[C@H](NC(=O)c3ccc(-c4ccc(NC(=O)[C@@H]5CCC(=O)N5)cc4)[nH]c3=O)c3ccccc3)C2SC1 (stereo partly drawn) [Example 16, N-[6-[4-(L-Pyroglutamylamino)phenyl]-1,2-dihydro-2-oxonicotinyl]-7-[D-2-amino-2-phenylacetamido]-3-[[(1-carboxymethyl-1H-tetrazol-5-yl)thio]methyl]-3-cephem-4-carboxylic acid], the MIC (E. Coli. Brig) was 3.1 µg/mL (≈ 3.74 µM), the MIC (Prot Vulg.) was 0.4 µg/mL (≈ 0.483 µM) and the MIC (Serr. Mar. IMM 16) was 6.3 µg/mL (≈ 7.6 µM). The MIC (E. Coli. Vogel) was 0.4 µg/mL (≈ 0.483 µM), the MIC (Strep. fec. MGH 2) was 50 µg/mL (≈ 60.3 µM) and the MIC (Staph S 18713) was 12.5 µg/mL (≈ 15.1 µM). It also gave an MIC (Pseudomonas UI 18) of 6.3 µg/mL (≈ 7.6 µM), an MIC (Pseudomonas BRK 12-4-4) of 6.3 µg/mL (≈ 7.6 µM) and an MIC (Staph UC76) of 3.1 µg/mL (≈ 3.74 µM). It also gave an MIC (Entero Cloac. IM 11) of 3.1 µg/mL (≈ 3.74 µM), an MIC (Pseudomonas #28) of 3.1 µg/mL (≈ 3.74 µM) and an MIC (Klebs. Pneum. MGH 2) of 0.8 µg/mL (≈ 0.965 µM).

In the case of CC(=O)OCC1=C(C(=O)O)N2C(=O)C(NC(=O)[C@H](NC(=O)c3ccc(-c4ccc(NC(=O)[C@@H](C)N)cc4)[nH]c3=O)c3ccccc3)C2SC1 (stereo partly drawn) [Example 29, N-[6-[4-(D-Alanylamino)phenyl]-1,2-dihydro-2-oxonicotinyl]-7-[D-2-amino-2-phenylacetamido]-3-acetoxymethyl-3-cephem-4-carboxylic acid], the “Minimal Inhibitory Concentration” value (E. Coli. Brig) is reported as 6.3 µg/mL, the “Minimal Inhibitory Concentration” value (Prot Vulg.) is reported as 6.3 µg/mL and the “Minimal Inhibitory Concentration” value (Serr. Mar. IMM 16) is reported as 25 µg/mL. For the same molecule, the “Minimal Inhibitory Concentration” value (E. Coli. Vogel) was 1.6 µg/mL, the “Minimal Inhibitory Concentration” value (Strep. fec. MGH 2) was 12.5 µg/mL and the “Minimal Inhibitory Concentration” value (Staph S 18713) was 1.6 µg/mL. The “Minimal Inhibitory Concentration” value (Pseudomonas UI 18) was 1.6 µg/mL, the “Minimal Inhibitory Concentration” value (Pseudomonas BRK 12-4-4) was 1.6 µg/mL and the “Minimal Inhibitory Concentration” value (Staph UC76) was 0.4 µg/mL. The “Minimal Inhibitory Concentration” value (Entero Cloac. IM 11) was 12.5 µg/mL, the “Minimal Inhibitory Concentration” value (Pseudomonas #28) was 1.6 µg/mL and the “Minimal Inhibitory Concentration” value (Klebs. Pneum. MGH 2) was 6.3 µg/mL.

For CC(=O)N[C@@H](C)C(=O)Nc1ccc(-c2ccc(C(=O)N[C@@H](C(=O)NC3C(=O)N4C(C(=O)O)=C(CSc5nnc(C)s5)CSC34)c3ccccc3)c(=O)[nH]2)cc1 (stereo partly drawn) [Example 15, N-[6-[4-(N-Acetyl-L-alanylamino)phenyl]-1,2-dihydro-2-oxonicotinyl]-7-[D-2-amino-2-phenylacetamido]-3-[([5-methyl-1,3,4-thiadiazolyl-2-yl]thio)methyl]-3-cephem-4-carboxylic acid], the MIC (E. Coli. Brig) was 6.3 µg/mL (≈ 7.85 µM), the MIC (Prot Vulg.) was 12.5 µg/mL (≈ 15.6 µM) and the MIC (Serr. Mar. IMM 16) was 25 µg/mL (≈ 31.1 µM). The MIC (E. Coli. Vogel) was 1.6 µg/mL (≈ 1.99 µM), the MIC (Strep. fec. MGH 2) was 12.5 µg/mL (≈ 15.6 µM) and the MIC (Staph S 18713) was 6.3 µg/mL (≈ 7.85 µM). It also gave an MIC (Pseudomonas UI 18) of 12.5 µg/mL (≈ 15.6 µM), an MIC (Pseudomonas BRK 12-4-4) of 12.5 µg/mL (≈ 15.6 µM) and an MIC (Staph UC76) of 0.4 µg/mL (≈ 0.498 µM). The MIC (Entero Cloac. IM 11) was 12.5 µg/mL (≈ 15.6 µM), the MIC (Pseudomonas #28) was 12.5 µg/mL (≈ 15.6 µM) and the MIC (Klebs. Pneum. MGH 2) was 3.1 µg/mL (≈ 3.86 µM).

For CC(=O)NCCCC[C@H](NC(C)=O)C(=O)Nc1ccc(-c2ccc(C(=O)N[C@@H](C(=O)NC3C(=O)N4C(C(=O)O)=C(COC(C)=O)CSC34)c3ccccc3)c(=O)[nH]2)cc1 (stereo partly drawn) [Example 35, N-[6-[4-(N,N'-Diacetyl-L-lysylamino)phenyl]-1,2-dihydro-2-oxonicotinyl]-7-[D-2-amino-2-phenylacetamido]-3-acetoxymethyl-3-cephem-4-carboxylic acid], the MIC (E. Coli. Brig) was 25 µg/mL (≈ 30.1 µM), the MIC (Prot Vulg.) was over 50 µg/mL and the MIC (Serr. Mar. IMM 16) was over 50 µg/mL. It also gave an MIC (E. Coli. Vogel) of 6.3 µg/mL (≈ 7.59 µM), an MIC (Strep. fec. MGH 2) of 25 µg/mL (≈ 30.1 µM) and an MIC (Staph S 18713) of 6.3 µg/mL (≈ 7.59 µM). It also gave an MIC (Pseudomonas UI 18) of 6.3 µg/mL (≈ 7.59 µM), an MIC (Pseudomonas BRK 12-4-4) of 12.5 µg/mL (≈ 15.1 µM) and an MIC (Staph UC76) of 3.1 µg/mL (≈ 3.74 µM). It also gave an MIC (Entero Cloac. IM 11) of 12.5 µg/mL (≈ 15.1 µM), an MIC (Pseudomonas #28) of 12.5 µg/mL (≈ 15.1 µM) and an MIC (Klebs. Pneum. MGH 2) of 12.5 µg/mL (≈ 15.1 µM).

With CC(=O)N[C@@H](CCC(N)=O)C(=O)Nc1ccc(-c2ccc(C(=O)N[C@@H](C(=O)NC3C(=O)N4C(C(=O)O)=C(COC(C)=O)CSC34)c3ccccc3)c(=O)[nH]2)cc1 (stereo partly drawn) [Example 14, N-[6-[4-(N-Acetyl-L-glutaminylamino)phenyl]-1,2-dihydro-2-oxonicotinyl]-7-[D-2-amino-2-phenylacetamido]-3-acetoxymethyl-3-cephem-4-carboxylic acid] the MIC (E. Coli. Brig) was 6.3 µg/mL (≈ 8 µM), the MIC (Prot Vulg.) was 25 µg/mL (≈ 31.7 µM) and the MIC (Serr. Mar. IMM 16) was 50 µg/mL (≈ 63.5 µM). The MIC (E. Coli. Vogel) was 1.6 µg/mL (≈ 2.03 µM), the MIC (Strep. fec. MGH 2) was 12.5 µg/mL (≈ 15.9 µM) and the MIC (Staph S 18713) was 1.6 µg/mL (≈ 2.03 µM). It also gave an MIC (Pseudomonas UI 18) of 6.3 µg/mL (≈ 8 µM), an MIC (Pseudomonas BRK 12-4-4) of 6.3 µg/mL (≈ 8 µM) and an MIC (Staph UC76) of 0.8 µg/mL (≈ 1.02 µM). It also gave an MIC (Entero Cloac. IM 11) of 12.5 µg/mL (≈ 15.9 µM), an MIC (Pseudomonas #28) of 3.1 µg/mL (≈ 3.93 µM) and an MIC (Klebs. Pneum. MGH 2) of 3.1 µg/mL (≈ 3.93 µM).
